“And” between values parts separate entries of the source, which are not always exact repeats. Identical values can stand only once.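 Each compound was tested at five concentrations against cells in 96-well plates for 48 hours. Abbreviation: GI50, concentration required for 50% inhibition of growth. At the TGI there is no net growth.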
Legend:
Assay in all cases: inhibition of tumour cell growth, NCI panel, 48 h
COLO 205 colon = test system: COLO 205 colon
U251 CNS = test system: U251 CNS
RPMI-8226 leukemia = test system: RPMI-8226 leukemia
MDA-MB-435 = test system: MDA-MB-435
HT29 colon = test system: HT29 colon
SK-MEL-28 melanoma = test system: SK-MEL-28 melanoma
CAKI-1 renal = test system: CAKI-1 renal
BT-549 breast = test system: BT-549 breast
PC-3 prostate = test system: PC-3 prostate
KM12 colon = test system: KM12 colon
OVCAR-5 ovarian = test system: OVCAR-5 ovarian
HOP-92 NSCLC = test system: HOP-92 NSCLC
EKVX NSCLC = test system: EKVX NSCLC
M14 melanoma = test system: M14 melanoma
SNB-19 CNS = test system: SNB-19 CNS
T-47D breast = test system: T-47D breast
MALME-3M melanoma = test system: MALME-3M melanoma
NCI/ADR-RES ovarian = test system: NCI/ADR-RES ovarian
SF-539 CNS = test system: SF-539 CNS
SK-MEL-2 melanoma = test system: SK-MEL-2 melanoma
SF-295 CNS = test system: SF-295 CNS
SK-MEL-5 melanoma = test system: SK-MEL-5 melanoma
SW-620 colon = test system: SW-620 colon
UACC-257 melanoma = test system: UACC-257 melanoma
786-0 renal = test system: 786-0 renal
HCT-15 colon = test system: HCT-15 colon
SK-OV-3 ovarian = test system: SK-OV-3 ovarian
A498 renal = test system: A498 renal

Q: How did the GI50 (COLO 205 colon) turn out when `O=C(O)C[C@H](O)C[C@H](O)/C=C/c1c(C2CC2)nc2ccccc2c1-c1ccc(F)cc1` was run?
A: 43.3 µM and 8.98 µM

Q: And the TGI (COLO 205 colon)?
A: > 100 µM

Q: What about the GI50 (U251 CNS) of the same compound?
A: 1.62 µM and 0.302 µM

Q: And the TGI (U251 CNS)?
A: > 100 µM

Q: And the GI50 (RPMI-8226 leukemia)?
A: 25 µM and 10.4 µM

Q: And the TGI (RPMI-8226 leukemia)?
A: > 100 µM

Q: And the GI50 (MDA-MB-435)?
A: 14.6 µM and 6.04 µM

Q: What about the TGI (MDA-MB-435) of the same compound?
A: > 100 µM

Q: What about the GI50 (HT29 colon) of the same compound?
A: 62.2 µM and 8.24 µM

Q: And the TGI (HT29 colon)?
A: > 100 µM

Q: And the GI50 (SK-MEL-28 melanoma)?
A: 27.4 µM and 7.7 µM

Q: What about the TGI (SK-MEL-28 melanoma) of the same compound?
A: > 100 µM

Q: And the GI50 (CAKI-1 renal)?
A: 2.66 µM and 1.25 µM

Q: What about the TGI (CAKI-1 renal) of the same compound?
A: 12.5 µM and 5.31 µM

Q: What about the GI50 (BT-549 breast) of the same compound?
A: 18.1 µM and 4.11 µM

Q: What about the TGI (BT-549 breast) of the same compound?
A: > 100 µM

Q: What about the GI50 (PC-3 prostate) of the same compound?
A: 0.508 µM and 0.423 µM

Q: What about the TGI (PC-3 prostate) of the same compound?
A: > 100 µM

Q: And the GI50 (KM12 colon)?
A: 34.2 µM and 24.8 µM

Q: And the TGI (KM12 colon)?
A: > 100 µM

Q: What about the GI50 (OVCAR-5 ovarian) of the same compound?
A: 52.6 µM and 7.32 µM

Q: What about the TGI (OVCAR-5 ovarian) of the same compound?
A: > 100 µM

Q: What about the TGI (HOP-92 NSCLC) of the same compound?
A: 0.227 µM and 0.0622 µM

Q: And the GI50 (EKVX NSCLC)?
A: 23.1 µM and 5.16 µM

Q: What about the TGI (EKVX NSCLC) of the same compound?
A: > 100 µM

Q: And the GI50 (M14 melanoma)?
A: 5.34 µM and 4.38 µM

Q: What about the TGI (M14 melanoma) of the same compound?
A: > 100 µM

Q: What about the TGI (SNB-19 CNS) of the same compound?
A: > 100 µM

Q: What about the TGI (T-47D breast) of the same compound?
A: > 100 µM

Q: What about the GI50 (MALME-3M melanoma) of the same compound?
A: > 100 µM

Q: What about the TGI (MALME-3M melanoma) of the same compound?
A: > 100 µM

Q: And the GI50 (NCI/ADR-RES ovarian)?
A: 2.82 µM and 0.86 µM

Q: What about the TGI (NCI/ADR-RES ovarian) of the same compound?
A: > 100 µM

Q: And the GI50 (SF-539 CNS)?
A: 43.7 µM and 5.46 µM

Q: What about the TGI (SF-539 CNS) of the same compound?
A: > 100 µM

Q: What about the GI50 (SK-MEL-2 melanoma) of the same compound?
A: 4.06 µM

Q: And the TGI (SK-MEL-2 melanoma)?
A: > 100 µM

Q: And the GI50 (SF-295 CNS)?
A: 2.1 µM and 0.526 µM

Q: What about the TGI (SF-295 CNS) of the same compound?
A: > 100 µM

Q: And the GI50 (SK-MEL-5 melanoma)?
A: 12.8 µM and 1.32 µM

Q: And the TGI (SK-MEL-5 melanoma)?
A: 31.1 µM and 3.56 µM

Q: What about the GI50 (SW-620 colon) of the same compound?
A: 18.6 µM and 4.92 µM

Q: What about the TGI (SW-620 colon) of the same compound?
A: > 100 µM

Q: What about the GI50 (UACC-257 melanoma) of the same compound?
A: > 100 µM

Q: And the TGI (UACC-257 melanoma)?
A: > 100 µM

Q: What about the GI50 (786-0 renal) of the same compound?
A: 21.6 µM and 2.86 µM

Q: What about the TGI (786-0 renal) of the same compound?
A: > 100 µM

Q: And the GI50 (HCT-15 colon)?
A: 6.16 µM and 0.616 µM

Q: And the TGI (HCT-15 colon)?
A: > 100 µM

Q: And the GI50 (SK-OV-3 ovarian)?
A: 26.1 µM and 6.6 µM

Q: And the TGI (SK-OV-3 ovarian)?
A: > 100 µM

Q: And the GI50 (A498 renal)?
A: 0.202 µM and 0.036 µM
